Drawing on publication PMC11855827, “High-Throughput Screening of Five Compound Libraries for Anthelmintic Activity and Toxicity Leads to the Discovery of Two Flavonoid Compounds” (International Journal of Molecular Sciences, 2025), this text covers inhibition for 47 compounds.

What is called inhibition is the drop in the measured response relative to a control, in per cent.

The test system of the assay is C. elegans. In words: microbe, parasite or virus in culture. Particulars: Caenorhabditis elegans.
Setting [1] is: 0 h, read-out: Percentage of motility inhibition 0 h, Table S2, C. elegans SS assay, 110 μM, 0 h, averages of 4 data points.
[2] abbreviates: 24 h, read-out: Percentage of motility inhibition 24 h, Table S2, C. elegans SS assay, 110 μM, 24 h, averages of 4 data points.
The mark [3] stands for this setting: 0 h, read-out: Percentage of motility inhibition 0 h.
Setting [4] is: 24 h, read-out: Percentage of motility inhibition 24 h.

SMILES strings stand for the structures. Where a name gives a salt, the structure may show the parent alone. Read-outs that look alike come from different tables or passages of the source.

Regarding `COc1cc2c(cc1OC)-c1c(OC)c(OC)cc3c1[C@H](C2)N(C)CC3` [Glauci ne], the inhibition at 110 µM reads like this: under setting [1], 0%; under setting [2], 11%.
As for `C=C1C(=O)[C@@]23[C@H](O)C[C@@H]4C(C)(C)C(=O)CC[C@@]4(C)[C@@H]2CC[C@@H]1[C@H]3O` [Glaucocalyxin A], the inhibition at 110 µM is, setting by setting: under setting [1], 0%; under setting [2], 7%.
The like results for `N[C@H]1C(O)O[C@H](CO)[C@@H](O)[C@@H]1O` (stereo partly drawn) [Glucosamine] were, in that order, 8% and 4%.
In the case of `COc1cc2c(=O)c(-c3ccc(O)cc3)coc2cc1O` [Glycitein], the inhibition at 110 µM under setting [1] came to 0% and the inhibition at 110 µM under setting [2] stood at 0%.
As for `CC1(C)[C@@H](O[C@H]2O[C@H](C(=O)O)[C@@H](O)[C@H](O)[C@H]2O[C@@H]2O[C@H](C(=O)O)[C@@H](O)[C@H](O)[C@H]2O)CC[C@]2(C)[C@H]3C(=O)C=C4[C@@H]5C[C@@](C)(C(=O)O)CC[C@]5(C)CC[C@@]4(C)[C@]3(C)CC[C@@H]12` [Glycyrrhizic acid], the inhibition at 110 µM is 0% under setting [1] and 0% under setting [2].
In the case of `Cc1cc2c(C(C)C)c(O)c(O)c(C=O)c2c(O)c1-c1c(C)cc2c(C(C)C)c(O)c(O)c(C=O)c2c1O` [Gossypol], the inhibition at 110 µM is, setting by setting: under setting [1], 0%; under setting [2], 26%.
The like results for `CN(C)Cc1c[nH]c2ccccc12` [Gramine] were, in that order, 0% and 0%.
As to `C=C1C(=O)O[C@@H]2C[C@@]3(C)[C@@H](O)C[C@@H](O)C(=C)[C@@H]3C[C@H]12` [Granilin], the inhibition at 110 µM reads like this: under setting [1], 4%; under setting [2], 13%.
On to `COC1=CC(=O)C[C@@H](C)[C@]12Oc1c(Cl)c(OC)cc(OC)c1C2=O` [Griseofulvin], for which the inhibition at 110 µM by setting is: under setting [1], 3%; under setting [2], 1%.
The corresponding values for `COc1ccccc1O` [Guaiacol] are 6% and 10%.
Consider `COc1ccccc1OCC(O)CO` (stereo not drawn) [Guaifenesin], for which the inhibition at 110 µM is, setting by setting: under setting [1], 46%; under setting [2], 27%.
With `C/C=C1\C(=O)C[C@H]2[C@@H]3CCC4=CC(=O)CC[C@]4(C)[C@H]3CC[C@]12C` [Guggulsterone], the inhibition at 110 µM came to 0% under setting [3] and 17% under setting [4].
Consider `O=C(O)C1=CCCNC1` [Guvacine hydrochloride], for which the inhibition at 110 µM was 0% under setting [1] and 0% under setting [2].
As to `CC(C)=CCC[C@](C)(O[C@@H]1O[C@H](CO[C@@H]2O[C@H](CO)[C@@H](O)[C@H](O)[C@H]2O)[C@@H](O)[C@H](O)[C@H]1O)[C@H]1CC[C@]2(C)[C@@H]1[C@H](O)C[C@@H]1[C@@]3(C)CC[C@H](O[C@@H]4O[C@H](CO)[C@@H](O)[C@H](O)[C@H]4O)C(C)(C)[C@@H]3CC[C@]12C` [Gypenoside XVII], the inhibition at 110 µM is, setting by setting: under setting [1], 4%; under setting [2], 4%.
For `CC1(C)CC[C@]2(C(=O)O)CC[C@]3(C)C(=CC[C@@H]4[C@@]5(C)CC[C@H](O)[C@@](C)(C=O)[C@@H]5CC[C@]43C)[C@@H]2C1` [Gypsogenin], the inhibition at 110 µM was 10% under setting [1] and 10% under setting [2].
In the case of `O=C(CC1NCCCC1O)Cn1cnc2cc(Br)c(Cl)cc2c1=O` (stereo not drawn) [Halofuginone], the inhibition at 110 µM runs as follows: under setting [1], 18%; under setting [2], 11%.
`Cc1nccc2c1[nH]c1ccccc12` [Harmane]: the inhibition at 110 µM is 0% under setting [1] and 6% under setting [2].
As to `COc1ccc2c(c1)[nH]c1c(C)nccc12` [Harmine], the inhibition at 110 µM under setting [3] was found to be 36% and the inhibition at 110 µM under setting [4] is 4%.
Take `Cc1[nH]ccc2c1[nH]c1cc(=O)ccc12` [Harmol]: the inhibition at 110 µM reads like this: under setting [1], 0%; under setting [2], 0%.
Turning to `C[C@]1(OC(=O)/C=C/c2ccccc2)C[C@@H](O)[C@]2(O)C=CO[C@@H](O[C@@H]3O[C@H](CO)[C@@H](O)[C@H](O)[C@H]3O)[C@@H]21` [Harpagoside], the inhibition at 110 µM runs as follows: under setting [1], 9%; under setting [2], 30%.
Consider `COC(=O)C[C@](O)(CCC(C)(C)O)C(=O)O[C@@H]1C(OC)=C[C@]23CCCN2CCc2cc4c(cc2[C@H]13)OCO4` [Harringtonine], for which the inhibition at 110 µM under setting [2] is 0%.
Take `C[C@@H]1O[C@@H](O[C@H]2[C@H](O[C@H]3CC[C@]4(C)[C@H]5CC=C6[C@@H]7CC(C)(C)CC[C@]7(C(=O)O)CC[C@@]6(C)[C@]5(C)CC[C@H]4C3(C)C)OC[C@H](O[C@@H]3O[C@H](CO)[C@@H](O)[C@H](O)[C@H]3O)[C@@H]2O)[C@H](O)[C@H](O)[C@H]1O` [Hederacolchiside A1]: the inhibition at 110 µM is, setting by setting: under setting [1], 0%; under setting [2], 0%.
Take `CC1(C)CC[C@]2(C(=O)O)CC[C@]3(C)C(=CC[C@@H]4[C@@]5(C)CC[C@H](O)[C@@](C)(CO)[C@@H]5CC[C@]43C)[C@@H]2C1` [Hederagenin]: the inhibition at 110 µM under setting [3] is 30% and the inhibition at 110 µM under setting [4] is 21%.
On to `C[C@@H]1O[C@@H](O[C@H]2[C@H](O[C@H]3CC[C@]4(C)[C@H]5CC=C6[C@@H]7CC(C)(C)CC[C@]7(C(=O)O[C@@H]7O[C@H](CO[C@@H]8O[C@H](CO)[C@@H](O[C@@H]9O[C@@H](C)[C@H](O)[C@@H](O)[C@H]9O)[C@H](O)[C@H]8O)[C@@H](O)[C@H](O)[C@H]7O)CC[C@@]6(C)[C@]5(C)CC[C@H]4C3(C)C)OC[C@H](O)[C@@H]2O)[C@H](O)[C@H](O)[C@H]1O` [Hederasaponin B], for which the inhibition at 110 µM was 11% under setting [1] and 3% under setting [2].
Consider `O=c1c(O)c(-c2ccc(O)cc2)oc2c(O)c(O)cc(O)c12` [Herbacetin], for which the inhibition at 110 µM is, setting by setting: under setting [3], 4%; under setting [4], 13%.
As for `COc1ccc([C@@H]2CC(=O)c3c(O)cc(O)cc3O2)cc1O` [Hesperetin], the inhibition at 110 µM reads like this: under setting [1], 21%; under setting [2], 5%.
The like results for `CCCCC(O)(Cn1cncn1)c1ccc(Cl)cc1Cl` (stereo not drawn) [Hexaconazole] were, in that order, 14% and 22%.
With `CCCCC(CC)CN1CN(CC(CC)CCCC)CC(C)(N)C1` (stereo not drawn) [Hexetidine], the inhibition at 110 µM under setting [1] was found to be 46% and the inhibition at 110 µM under setting [2] was determined as 39%.
For `O=C(O)[C@H]1O[C@@H](Oc2c(O)cc(O)c3c(=O)c(O)c(-c4ccc(O)c(O)c4)oc23)[C@H](O)[C@@H](O)[C@@H]1O` [Hibifolin], the inhibition at 110 µM amounted to 6% under setting [1] and 1% under setting [2].
Consider `COc1c(O)cc2oc(-c3ccc(O)cc3)cc(=O)c2c1O` [Hispidulin], for which the inhibition at 110 µM is, setting by setting: under setting [3], 0%; under setting [4], 33%.
Regarding `NCCc1c[nH]cn1` [Histamine], the inhibition at 110 µM under setting [1] came out at 5% and the inhibition at 110 µM under setting [2] was 6%.
The corresponding values for `CN(C)CCc1ccc(O)cc1` [Hordenine] are 28% and 10%.
Take `CC1=C[C@H]2Cc3[nH]c(=O)ccc3[C@]3(C1)NCCC[C@H]23` [Huperzine B]: the inhibition at 110 µM is, setting by setting: under setting [3], 18%; under setting [4], 8%.
Turning to `CCN(CC)CCNc1ccc(CO)c2sc3ccccc3c(=O)c12` [Hycanthone], the inhibition at 110 µM is 31% under setting [1] and 26% under setting [2].
The like results for `COc1ccc2c(c1OC)C(=O)O[C@@H]2[C@H]1c2cc3c(cc2CCN1C)OCO3` [Hydrastine] were, in that order, 0% and 19%.
The like results for `CN1CCc2cc3c(cc2C1O)OCO3` (stereo not drawn) [Hydrastinine] were, in that order, 1% and 4%.
Turning to `CC[C@H]1CN2CC[C@H]1C[C@H]2[C@H](O)c1ccnc2ccc(OC)cc12` [Hydroquinine], the inhibition at 110 µM reads like this: under setting [1], 0%; under setting [2], 0%.
For the compound `CCN(CCO)CCCC(C)Nc1ccnc2cc(Cl)ccc12` (stereo not drawn) [Hydroxychloroquine sulfate], the inhibition at 110 µM under setting [1] worked out at 19% and the inhibition at 110 µM under setting [2] stood at 9%.
The like results for `CN1C(=O)C(O)CC1c1cccnc1` (stereo not drawn) [Hydroxycotinine] were, in that order, 13% and 0%.
The corresponding values for `C[C@H](CCC(=O)O)[C@H]1CC[C@H]2[C@@H]3C[C@H](O)[C@@H]4C[C@H](O)CC[C@]4(C)[C@H]3CC[C@]12C` [Hyodeoxycholic acid] are 2% and 18%.
The like results for `COC[C@@]12CC[C@H](OC)[C@]34C(C([C@H](OC)[C@H]13)[C@]1(OC(C)=O)[C@H]3[C@@H](OC(=O)c5ccccc5)[C@](O)(C[C@H]34)[C@@H](OC)[C@@H]1O)N(C)C2` [Hypaconitine] were, in that order, 0% and 6%.
In the case of `C[N+](C)(C)[C@@H](Cc1c[nH]c2ccccc12)C(=O)[O-]` [Hypaphorine], the inhibition at 110 µM by setting is: under setting [1], 0%; under setting [2], 0%.
`O=c1c(O[C@@H]2O[C@H](CO)[C@H](O)[C@H](O)[C@H]2O)c(-c2ccc(O)c(O)c2)oc2cc(O)cc(O)c12` [Hyperoside]: the inhibition at 110 µM under setting [1] worked out at 14% and the inhibition at 110 µM under setting [2] came out at 11%.
Regarding `COc1ccc(-c2oc3c(CC=C(C)C)c(O[C@@H]4O[C@H](CO)[C@@H](O)[C@H](O)[C@H]4O)cc(O)c3c(=O)c2O[C@@H]2O[C@@H](C)[C@H](O)[C@@H](O)[C@H]2O)cc1` [Icariin], the inhibition at 110 µM came to 30% under setting [3] and 12% under setting [4].
Regarding `COc1ccc(-c2oc3c(CC=C(C)C)c(O)cc(O)c3c(=O)c2O)cc1` [Icaritin], the inhibition at 110 µM is, setting by setting: under setting [1], 0%; under setting [2], 2%.
The like results for `O=c1[nH]c(=O)n([C@H]2C[C@H](O)[C@@H](CO)O2)cc1I` [Idoxuridine] were, in that order, 38% and 11%.
As for `C=CCOC(Cn1ccnc1)c1ccc(Cl)cc1Cl` (stereo not drawn) [Imazalil], the inhibition at 110 µM stood at 35% under setting [1] and 36% under setting [2].
